# Data published in PubChem BioAssay AID488879 (Sanford-Burnham Center for Chemical Genomics, 2010).
# Active and inactive are the calls of the source. The rule behind the calls is not given here.
# Biological target: alkaline phosphatase, placental type (Homo sapiens)
# Test: inhibition of placental alkaline phosphatase – biochemical, uHTS hits, selectivity assay for mouse IAP inhibitor project, dose response (AID 488879)
# Details: purified human placental alkaline phosphatase, enzymatic inhibition
row,SMILES,IC50
1,S=C(NCc1ccc(Cl)cc1Cl)NC1CCCCC1,> 100 µM (inactive)
2,C#CCOCCOCCOCCNc1nc(N2CCN(C(=O)CCCCCCCCCCNC(=O)Cn3cc(C[C@@H](C)O)nn3)CC2)nc(N2CCN(C(=O)CCCCCCCCCCNC(=O)[C@@H](CCSC)n3cc(CCO)nn3)CC2)n1,39.9 µM
3,Cc1ccc(S(=O)(=O)Nc2ccc(O)c(Sc3ncn[nH]3)c2)cc1,> 100 µM (inactive)
4,NS(=O)(=O)c1cc(C(=O)N=Nc2c(O)[nH]c3ccccc23)ccc1Cl,> 100 µM (inactive)
5,O=S(=O)(c1ccc(NC(=S)N/N=C/c2ccc(O)c(O)c2)cc1)N1CCOCC1,2.35 µM
6,O=C(CCN1C(=O)/C(=C/c2ccco2)SC1=S)Nc1ccc(O)cc1C(=O)O,> 100 µM (inactive)
7,CCn1c(SCC(=O)c2ccc(O)c(O)c2)nnc1-c1ccccc1OC,> 100 µM (inactive)
8,O=C(NC1CCCCC1)Oc1cc2oc(=O)sc2cc1Cl,5.95 µM
9,CCN(C(=O)C(C)N1C(=O)/C(=C/c2ccco2)SC1=S)C1CCS(=O)(=O)C1 (stereo not given),7.78 µM
10,N#Cc1c(SCC(=O)Nc2nc3ccccc3s2)sc2c(O)cc(=O)[nH]c12,> 100 µM (inactive)
11,COc1cc(/C=N/N2C(=O)CSC2=S)ccc1O,> 100 µM (inactive)
12,O=C1CSC(=S)N1/N=C/c1ccc(O)c(O)c1O,> 100 µM (inactive)
13,Cc1ccc(S(=O)(=O)N2CCC(C(=O)Nc3ccc(C(C)C)cc3)CC2)cc1,> 100 µM (inactive)
14,CCCn1ncc(CN2CCC(C(=O)Nc3cccc(-c4cccc(F)c4)c3)CC2)c1C,> 100 µM (inactive)
15,Cc1cc(Cn2nc(-c3ccccc3)cc2C(=O)NCc2cccc(C(F)(F)F)c2)on1,> 100 µM (inactive)
16,O=C1CC(c2ccc(O)c(O)c2)Oc2c1ccc(O)c2O (stereo not given),> 100 µM (inactive)
17,COC(=O)C/C=N/N=C1/NC(=O)/C(=C/C(=O)O)S1,8.44 µM
18,O=C1CNC(=S)N1CCc1ccc(O)c(O)c1,> 100 µM (inactive)
19,CN=c1scc(-c2ccco2)n1/N=C/c1ccc(O)c(O)c1,> 100 µM (inactive)
20,O=C(N/N=C/c1cccnc1)c1cc(O)c(O)c(O)c1,> 100 µM (inactive)
21,COc1cccc(NC(=O)CN(C)S(=O)(=O)c2ccc3[nH]c(=O)oc3c2)c1,> 100 µM (inactive)
22,CCN1C(=O)/C(=C2\SC(=S)N(NC(=O)c3ccccc3O)C2=O)c2ccccc21,> 100 µM (inactive)
23,COc1cc(NS(=O)(=O)c2ccc(NC(=S)NC(=O)/C=C/c3ccco3)cc2)ncn1,55.1 µM
24,Cc1ccc(NC(=S)NCc2ccccc2)cc1S(=O)(=O)N1CCCCC1,> 100 µM (inactive)

row,SMILES,IC50
1,O=c1ccc2c(-c3ccccc3S(=O)(=O)O)c3ccc(O)c(O)c3oc-2c1O,> 100 µM (inactive)
2,COc1cc(OC)c2c(c1O)OC(c1ccccc1)CC2=O (stereo not given),> 100 µM (inactive)
3,O=C(NN1C(=O)/C(=C/c2ccc(O)cc2)SC1=S)c1ccccc1O,> 100 µM (inactive)
4,Cc1ccc(CN2C3CCCC2CC(NC(=O)Nc2cccc(F)c2)C3)cc1 (stereo not given),> 100 µM (inactive)
5,CCN1/C(=C/C=C/c2sc3ccccc3[n+]2CC)Sc2ccccc21,> 100 µM (inactive)
6,C#CCOCCOCCOCCNc1nc(N2CCN(C(=O)CCCCCCCCCCNC(=O)[C@H](CO)n3cc(CCCSC)nn3)CC2)nc(N2CCN(C(=O)CCCCCCCCCCNC(=O)[C@H](CCCN=C(N)N)n3cc(C[C@@H](C)CC)nn3)CC2)n1,> 100 µM (inactive)
7,O=C(COC(=O)c1ccccc1)Nc1ncc([N+](=O)[O-])s1,60.2 µM
8,Cc1cc(F)ccc1S(=O)(=O)Nc1ccc(O)c(Sc2ncn[nH]2)c1,6.94 µM
9,O=C1/C(=C\c2cccc(O)c2O)SC(=S)N1Cc1ccccc1,> 100 µM (inactive)
10,COCc1ccc(CN2CCC(C(=O)Nc3cccc(-c4cccc(Cl)c4)c3)CC2)o1,> 100 µM (inactive)
11,CN(CC(=O)NC(c1ccccc1)c1ccccc1)Cc1nc2ccccc2c(=O)[nH]1,> 100 µM (inactive)
12,O=[N+]([O-])c1ccccc1NC(=S)N/N=C/c1ccc(O)c(O)c1,> 100 µM (inactive)
13,CCn1cc(CN2CCC(C(=O)Nc3cccc(-c4cccc(Cl)c4)c3)CC2)c(C)n1,> 100 µM (inactive)
14,Cc1cccnc1Nc1nc(-c2ccc(O)c(O)c2)cs1,> 100 µM (inactive)
15,C=CCn1cc(CN2CCC(C(=O)Nc3cccc(-c4cccc(Cl)c4)c3)CC2)c(C)n1,34.3 µM
16,COC(=O)c1ccc(NS(=O)(=O)c2ccc3[nH]c(=O)oc3c2)cc1,> 100 µM (inactive)
17,COc1ccc(N2C(=O)/C(=C/c3ccco3)C(=O)NC2=S)cc1,64.9 µM
18,O=c1[nH]c2ccc(S(=O)(=O)N3CCCCC3)cc2o1,> 100 µM (inactive)
19,N#C/C(=C\c1ccc(O)c(O)c1)C(=O)Nc1cccc2ncccc12,7.32 µM
20,C#CCOCCOCCOCCNc1nc(N2CCN(C(=O)CCCCCCCCCCNC(=O)Cn3cc(C[C@@H](C)O)nn3)CC2)nc(N2CCN(C(=O)CCCCCCCCCCNC(=O)[C@H](CCCCN)n3cc(C[C@@H](C)CC)nn3)CC2)n1,> 100 µM (inactive)
21,O=C(O)CC(C(=O)O)N1C(=O)/C(=C/C=C/c2ccco2)SC1=S (stereo not given),> 100 µM (inactive)
22,Cc1cc(Cl)ccc1NC(=S)NCCC(c1ccccc1)c1ccccc1,> 100 µM (inactive)
23,COc1ccc(Cl)cc1NC(=S)NCCC(c1ccccc1)c1ccccc1,39.4 µM
24,O=C(/C=C/c1ccco1)NC(=S)Nc1ccc(C(=O)O)cc1,> 100 µM (inactive)

row,SMILES,IC50
1,CC(/C=C/C1(O)C(C)CC(=O)CC1(C)C)OC1OC(CO)C(O)C(O)C1O (stereo not given),> 100 µM (inactive)
2,CCc1cc(Cn2nc(-c3ccccc3)cc2C(=O)NCc2cccc(Br)c2)on1,> 100 µM (inactive)
3,O=C(COc1ccccc1C(=O)N/N=C\c1ccc(O)c(O)c1)N/N=C/c1ccc(O)c(O)c1,> 100 µM (inactive)
4,NS(=O)(=O)c1ccc2c(c1)oc(=O)c1cc(S(N)(=O)=O)ccc12,> 100 µM (inactive)
5,Cc1nn(C(C)C)c(C)c1CN1CCC(C(=O)Nc2cccc(-c3cccc(F)c3)c2)CC1,56.6 µM
6,CC(C(=O)O)N1C(=O)/C(=C/C=C/c2ccco2)SC1=S (stereo not given),> 100 µM (inactive)
7,Cc1cc(O)c(Sc2ncn[nH]2)cc1NS(=O)(=O)c1ccc(Cl)cc1,> 100 µM (inactive)
8,Nc1nnc(CC(=O)N/N=C/c2cc([N+](=O)[O-])cc(Br)c2O)s1,> 100 µM (inactive)
9,O=C(NN1C(=O)/C(=C/c2ccc(O)c(O)c2)SC1=S)c1ccccc1,> 100 µM (inactive)
10,Cn1nc([N+](=O)[O-])nc1S(C)(=O)=O,> 100 µM (inactive)
11,Cc1ccc(C)c(NS(=O)(=O)c2ccc3[nH]c(=O)oc3c2)c1,> 100 µM (inactive)
12,FC(F)Oc1ccc(NC(=S)NC2CCSc3ccccc32)cc1 (stereo not given),> 100 µM (inactive)
13,COc1ccc(CN2C3CCCC2CC(NC(=O)Nc2cccc(C)c2)C3)cc1 (stereo not given),30.5 µM
14,S=C(NCCC(c1ccccc1)c1ccccc1)Nc1ccc(Cl)cc1,> 100 µM (inactive)
15,CCOC(=O)c1ccc(N2CCN(c3ccccc3F)CC2)c(NC(=O)Nc2cccc(OC)c2)c1,> 100 µM (inactive)
16,Cc1ccc(/C=C2\SC(=S)N(/N=C/c3cc([N+](=O)[O-])ccc3O)C2=O)o1,> 100 µM (inactive)
17,O=C(O)CNS(=O)(=O)c1ccc2c3c(cccc13)C(=O)N2,> 100 µM (inactive)
18,O=C(CCNS(=O)(=O)c1ccc2[nH]c(=O)oc2c1)Nc1ccccc1,42.5 µM
19,COc1cc(/C=C/C(O)=C/C(=O)/C=C/c2ccc(O)cc2)ccc1O,> 100 µM (inactive)
20,O=C1/C(=C/c2ccc(O)c(O)c2)Oc2cc(O)ccc21,67.2 µM
21,FC(F)Sc1ccc(NC(=S)NC(c2ccccc2)c2ccccc2)cc1,> 100 µM (inactive)
22,S=C(NCCC(c1ccccc1)c1ccccc1)Nc1cccc(Cl)c1,72.7 µM
23,O=C(Nc1cccc(-c2cccc(Cl)c2)c1)C1CCN(C2CCC2)CC1,10.2 µM
24,O=C(NN1C(=O)/C(=C/C=C/c2ccco2)SC1=S)c1ccccc1O,27.2 µM

row,SMILES,IC50
1,CCCCCOc1ccc(C(=O)CCC(=O)NNC(=O)c2ccncc2)cc1,> 100 µM (inactive)
2,Clc1ccc(C(c2ccc(Cl)cc2)n2cc[n+](CC(OCc3ccc(Cl)cc3Cl)c3ccc(Cl)cc3Cl)c2)cc1 (stereo not given),> 100 µM (inactive)
3,O=C1N=c2ccccc2=C1c1sc(=S)n(NC(=O)c2ccccc2)c1O,5.31 µM
4,O=C(O)CCCN1C(=O)/C(=C/C=C/c2ccco2)SC1=S,> 100 µM (inactive)
5,CC(C)=CCc1c(O)c(CC=C(C)C)c2c(c1O)-c1cc(O)c(O)cc1CC2,> 100 µM (inactive)
6,COc1ccc(C(=O)OCC(=O)Nc2ncc([N+](=O)[O-])s2)cc1OC,> 100 µM (inactive)
7,O=C(CN1C(=O)/C(=C/c2ccco2)SC1=S)Nc1ccc(O)c(C(=O)O)c1,17.2 µM
8,Oc1ccc(-c2csc(Nc3cccc4ccccc34)n2)cc1O,> 100 µM (inactive)
9,O=C1c2cccc(O)c2C(=O)c2c(O)cc(CO)cc21,> 100 µM (inactive)
10,Cc1ccc(Cl)c2c1=NC(=O)C=2c1[nH]c(=S)[nH]c1O,> 100 µM (inactive)
11,COc1cc(NC(=S)NCCC(c2ccccc2)c2ccccc2)cc(OC)c1,> 100 µM (inactive)
12,NC1=NC(=O)/C(=C\c2ccco2)S1,32 µM
13,CN1C(=O)/C(=C/C=C/c2ccco2)C(=O)NC1=S,24.4 µM
14,O=C(Nc1ccc(Cl)cc1)NC1CCCCC1Cc1ccco1 (stereo not given),> 100 µM (inactive)
15,CCN(c1ccccc1)S(=O)(=O)c1ccc2[nH]c(=O)[nH]c2c1,62.6 µM
16,N#Cc1c(SCC(=O)Nc2nccs2)sc2c(O)cc(=O)[nH]c12,> 100 µM (inactive)
17,CCOc1ccccc1N1CCN(S(=O)(=O)c2ccc3c4c(cccc24)C(=O)N3)CC1,> 100 µM (inactive)
18,CN(c1ccccc1C(=O)O)S(=O)(=O)c1ccc2c3c(cccc13)C(=O)N2,> 100 µM (inactive)
19,Cc1cc(C)cc(NC(=S)NC2CC3CCCC(C2)N3Cc2cccs2)c1 (stereo not given),42 µM
20,COc1ccc(C2CC(c3ccccc3Cl)=NN2c2ccc(S(N)(=O)=O)cc2)cc1 (stereo not given),> 100 µM (inactive)
21,CCn1nc(C)c(CN2CCC(C(=O)Nc3cccc(-c4cccc(Cl)c4)c3)CC2)c1C,> 100 µM (inactive)
22,COc1cccc(NC(=S)NCCC(c2ccccc2)c2ccccc2)c1,> 100 µM (inactive)
23,CCOc1ccccc1CNC(=O)CCNS(=O)(=O)c1ccc2[nH]c(=O)oc2c1,> 100 µM (inactive)
